From ChEMBL document CHEMBL1201862, “PubChem BioAssay data set” (2004)
Activity calls are given as the source filed them.

Legend:
Assay type in all cases: functional
[1] = target: T1, Replicative DNA helicase DnaB (Mycobacterium tuberculosis, UniProt P9WMR3); assay: DnaB intein splicing inhibitors, dose response, biochemical, cell-free fluorescence (AID 449749)
T1 sequence (P9WMR3 whole entry): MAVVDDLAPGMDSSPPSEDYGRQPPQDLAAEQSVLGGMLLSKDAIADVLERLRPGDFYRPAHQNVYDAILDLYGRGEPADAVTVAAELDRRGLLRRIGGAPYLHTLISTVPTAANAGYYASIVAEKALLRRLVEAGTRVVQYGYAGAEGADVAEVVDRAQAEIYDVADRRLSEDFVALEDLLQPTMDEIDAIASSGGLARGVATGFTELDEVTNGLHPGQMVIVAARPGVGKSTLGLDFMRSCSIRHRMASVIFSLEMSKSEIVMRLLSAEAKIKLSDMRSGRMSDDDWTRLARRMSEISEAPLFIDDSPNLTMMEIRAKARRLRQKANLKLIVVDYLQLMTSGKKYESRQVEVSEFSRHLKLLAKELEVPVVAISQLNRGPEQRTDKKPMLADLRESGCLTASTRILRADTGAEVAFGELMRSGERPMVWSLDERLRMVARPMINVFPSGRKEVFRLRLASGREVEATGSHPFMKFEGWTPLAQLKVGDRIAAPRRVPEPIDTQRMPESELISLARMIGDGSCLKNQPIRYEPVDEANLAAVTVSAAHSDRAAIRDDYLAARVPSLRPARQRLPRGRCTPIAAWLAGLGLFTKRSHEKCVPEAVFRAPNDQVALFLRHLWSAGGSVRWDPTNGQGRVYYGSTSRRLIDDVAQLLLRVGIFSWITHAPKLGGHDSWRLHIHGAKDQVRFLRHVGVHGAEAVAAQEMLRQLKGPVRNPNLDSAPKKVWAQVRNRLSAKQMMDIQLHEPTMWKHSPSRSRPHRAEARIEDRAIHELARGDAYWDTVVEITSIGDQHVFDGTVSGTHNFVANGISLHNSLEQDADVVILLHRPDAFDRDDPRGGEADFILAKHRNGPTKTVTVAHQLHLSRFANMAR

Protein RecA = target: T2, Protein RecA (Mycobacterium tuberculosis, UniProt P9WHJ3); assay: Fluorescence Cell-Free Homogeneous Dose Retest to Identify Inhibitors of RecA-Intein Splicing Activity. [Related pubchem assays (depositor defined):AID2097, AID2223, AID489010, AID492950]
T2 sequence (P9WHJ3 whole entry): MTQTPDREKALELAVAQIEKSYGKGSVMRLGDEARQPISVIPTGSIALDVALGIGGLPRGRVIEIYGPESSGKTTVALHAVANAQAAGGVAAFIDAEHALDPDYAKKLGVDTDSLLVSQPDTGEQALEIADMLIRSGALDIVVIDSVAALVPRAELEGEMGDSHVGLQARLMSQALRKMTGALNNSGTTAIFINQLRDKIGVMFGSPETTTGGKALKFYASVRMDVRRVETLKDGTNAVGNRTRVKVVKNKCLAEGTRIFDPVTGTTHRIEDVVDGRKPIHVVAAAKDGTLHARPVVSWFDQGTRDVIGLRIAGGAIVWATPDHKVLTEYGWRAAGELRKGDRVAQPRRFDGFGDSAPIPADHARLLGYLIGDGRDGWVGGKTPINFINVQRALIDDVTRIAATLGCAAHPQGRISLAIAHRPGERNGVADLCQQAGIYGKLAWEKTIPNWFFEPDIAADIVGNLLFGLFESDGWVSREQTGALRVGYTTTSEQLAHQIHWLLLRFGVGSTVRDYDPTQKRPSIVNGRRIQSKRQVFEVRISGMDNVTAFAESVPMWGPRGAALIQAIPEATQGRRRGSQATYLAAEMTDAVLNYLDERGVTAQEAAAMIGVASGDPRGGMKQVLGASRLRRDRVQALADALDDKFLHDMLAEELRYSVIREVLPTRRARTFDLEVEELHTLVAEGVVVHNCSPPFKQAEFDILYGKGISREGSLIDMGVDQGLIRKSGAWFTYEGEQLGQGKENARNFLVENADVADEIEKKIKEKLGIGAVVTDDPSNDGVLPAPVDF

[2] = target: T3, Sentrin-specific protease 6 (Homo sapiens, UniProt Q9GZR1);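 further: Luminescence-based dose-response confirmatory assay of SENP6 inhibition, following up an ultra-high-throughput screen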
T3 sequence (Q9GZR1 whole entry): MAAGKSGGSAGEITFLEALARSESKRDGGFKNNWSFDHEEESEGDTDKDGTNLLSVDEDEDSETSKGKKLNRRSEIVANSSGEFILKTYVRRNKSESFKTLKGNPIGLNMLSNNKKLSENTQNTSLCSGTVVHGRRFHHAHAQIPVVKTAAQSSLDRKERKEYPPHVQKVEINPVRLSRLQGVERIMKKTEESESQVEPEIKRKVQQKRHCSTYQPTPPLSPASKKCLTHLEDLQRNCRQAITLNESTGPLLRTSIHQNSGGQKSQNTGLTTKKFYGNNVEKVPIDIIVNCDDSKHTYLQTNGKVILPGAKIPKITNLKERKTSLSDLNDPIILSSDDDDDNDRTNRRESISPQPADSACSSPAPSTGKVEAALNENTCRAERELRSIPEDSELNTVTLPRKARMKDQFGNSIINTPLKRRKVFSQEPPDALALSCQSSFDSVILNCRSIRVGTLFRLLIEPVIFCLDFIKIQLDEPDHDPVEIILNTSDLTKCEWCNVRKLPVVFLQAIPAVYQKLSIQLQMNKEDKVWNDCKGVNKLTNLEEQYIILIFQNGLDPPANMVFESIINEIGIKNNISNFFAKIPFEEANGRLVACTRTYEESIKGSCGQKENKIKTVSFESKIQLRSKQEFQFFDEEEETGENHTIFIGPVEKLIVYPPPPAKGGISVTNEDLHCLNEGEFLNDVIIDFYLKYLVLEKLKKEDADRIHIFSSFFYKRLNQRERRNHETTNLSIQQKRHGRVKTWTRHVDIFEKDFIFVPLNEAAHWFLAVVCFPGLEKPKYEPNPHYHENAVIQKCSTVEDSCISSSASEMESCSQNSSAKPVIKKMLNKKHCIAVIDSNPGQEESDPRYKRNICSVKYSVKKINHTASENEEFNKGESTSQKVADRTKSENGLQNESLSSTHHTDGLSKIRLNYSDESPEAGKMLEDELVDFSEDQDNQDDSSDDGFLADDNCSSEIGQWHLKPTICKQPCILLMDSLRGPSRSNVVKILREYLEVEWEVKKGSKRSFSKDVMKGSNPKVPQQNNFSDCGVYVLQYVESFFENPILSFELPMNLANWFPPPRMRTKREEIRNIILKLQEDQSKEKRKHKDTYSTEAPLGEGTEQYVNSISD

SMILES | AC50 [1] | EC50 (Protein RecA) | IC50 [2]
COC1=C(c2ccccc2)C(=O)c2ccccc2C1=O | 13.4 µM (active) | 13.3 µM (active) | –
COc1cc2c(cc1OC)-c1c(OC)c(OC)cc3c1[C@H](C2)N(C)CC3 | 3.6 µM (active) | 4.91 µM (active) | 2.21 µM (active)
O=C1C(Cl)=C(N2CCC(C(=O)O)CC2)C(=O)c2ccccc21 | 19.3 µM (active) | 5.78 µM (active) | 12.6 µM (active)
